Entries after “also recorded” stand apart in the source; their conditions may differ. Like-named read-outs stand apart in the source and are kept apart here.
Assays:
[1] = tested on: CD8+ T cells of HLA-A*02:01 subjects; type: cell-based, human
[2] = molecular target: HLA-A*26:01 (Homo sapiens, UniProt P04439, A114D/A173T/A270S/D101N/D185E/E277Q/E87N/F33Y/G231S/I121R/I218V/K168Q/L180W/L300P/L318F/P208A/P217A/Q86R/Q94H/R138Q/S129P/T187R/T323A/T345S/V100A/V358M); type: binding
[3] = molecular target: HLA-A*02:01 (Homo sapiens, UniProt P04439, D140Y/D185E/D98H/E176V/E277Q/G131W/G231S/I119V/I121R/I166T/I218V/L300P/L318F/N151K/N90K/P208A/P217A/Q86G/Q94H/R138H/R169H/T345S); type: binding
[4] = tested on: CD8+ T cells of convalescent COVID-19 individuals; conditions: ref Tarke et al., 2020; cited from earlier work
[5] = tested on: CD8+ T cells of HLA-B*07:02 subjects; type: cell-based, human

## ELPDEFVVVTV
[1]; nine HLA-A*02:01 samples (seven COVID-19 convalescent and two unexposed)
  CD8+ T cell response (in words): top five reactive peptides; also recorded: strongest CD8+ response among all tested HLA-I peptides
[2]
  binding to A*26:01 (in words): binds
[3]
  binding to A*02:01 (in words): binds

## KLWAQCVQL [reference compound]
[1]
  CD8+ T cell response (in words): weak responses

## QLTPTWRVY
[4]
  T cell responses in convalescent COVID-19 individuals expressing the predicted alleles: elicit T cell responses

## RPPIFIRRL
[5]
  CD8+ T cell response (in words): positive reactivity

From article PMC8173604 (Cell, 2021)
